In ChEMBL document CHEMBL5360561, “Design, synthesis and biological evaluation of fluorinated selective estrogen receptor degraders (FSERDs) --- A promising strategy for advanced ER positive breast cancer” (Eur J Med Chem, 2023):
Blank lines part the entries; values can stand above or below the compound they belong to. Calls of active or inactive are those of the source. The rule behind the calls is not given here.

Legend:
MCF7 [1] = experiment: Induction of ER degradation in human MCF7 cells at 0.001 to 10 uM incubated for 24 hrs by Western blot analysis; type: cell-based; details: dose 0.001-10 µM
MCF7 [2] = experiment: Induction of ER degradation in Estradiol stimulated human MCF7 cells assessed as decrease in PGR gene expression level at 1 to 10 uM incubated for 24 hrs by RT-qPCR analysis; type: cell-based; details: dose 1-10 µM
[3] = Toxicity in Sprague-Dawley rat uterus assessed as change in uterine wet weight at 30 mg/kg, po for 2 days consecutively; type: organism-based; details: in vivo, 48 h, time 2 day
Mus musculus [4] = experiment: In vivo ER degradation in mouse xenografted with human MCF7 cells assessed as reduction in ER expression level in tumor at 30 mg/kg,po for 30 days daily by […]; type: functional, organism-based; details: time 30.0 day
MCF7 [5] = experiment: Induction of ER degradation in human MCF7 cells transfected with ERE-luciferase plasmid assessed as decrease in estradiol induced ERE-luciferase activity by measuring luminescence at 10 uM incubated for 24 hrs by luciferase assay; type: cell-based
[6] = Toxicity in mouse xenografted with human MCF7 cells assessed as morphological changes in spleen at 30 mg/kg,po for 30 days daily by Hematoxylin and eosin staining based microscopy; type: organism-based; details: in vivo, 720 h, time 30 day
MCF7 [7] = experiment: Induction of ER degradation in Estradiol stimulated human MCF7 cells assessed as decrease in TFF1 gene expression level at 1 to 10 uM incubated for 24 hrs by RT-qPCR analysis; type: cell-based; details: dose 1-10 µM
MCF7 [8] = experiment: Induction of ER degradation in human MCF7 cells at 10 uM incubated for 24 hrs by DAPI staining based immunofluorescence analysis; type: cell-based
MCF7 [9] = experiment: Antitumor activity against human MCF7 cells xenografted in nude mouse assessed as tumor growth inhibition at 30 mg/kg,po for 30 days daily; type: functional, organism-based; details: time 30.0 day
[10] = Toxicity in mouse xenografted with human MCF7 cells assessed as morphological changes in liver at 30 mg/kg,po for 30 days daily by Hematoxylin and eosin staining based microscopy; type: organism-based; details: in vivo, 720 h, time 30 day
[11] = Toxicity in mouse xenografted with human MCF7 cells assessed as morphological changes in heart at 30 mg/kg,po for 30 days daily by Hematoxylin and eosin staining based microscopy; type: organism-based; details: in vivo, 720 h, time 30 day
MCF7 [12] = experiment: Antitumor activity against human MCF7 cells xenografted in nude mouse assessed as reduction in Ki67 expression at 30 mg/kg,po for 30 days daily by immunohistochemical analysis; type: functional, organism-based; details: time 30.0 day
MCF7 [13] = experiment: Antiproliferative activity against human MCF7 cells assessed as cell growth inhibition incubated for 5 days by MTT assay; type: functional, cell-based; details: MCF7, 120 h
MCF7 [14] = experiment: Induction of ER degradation in Estradiol stimulated human MCF7 cells assessed as decrease in GREB1 mRNA expression level at 1 to 10 uM incubated for 24 hrs by RT-qPCR analysis; type: cell-based; details: dose 1-10 µM
Mus musculus [15] = experiment: In vivo ER degradation in mouse xenografted with human MCF7 cells assessed as reduction in PR expression level in tumor at 30 mg/kg,po for 30 days daily by […]; type: functional, organism-based; details: time 30.0 day
MCF7 [16] = experiment: Induction of ER degradation in human MCF7 cells at 10 uM incubated for 24 hrs by Western blot analysis; type: cell-based
[17] = Toxicity in mouse xenografted with human MCF7 cells assessed as body weight loss at 30 mg/kg,po for 30 days daily; type: organism-based; details: in vivo, 720 h, time 30 day
MCF7 [18] = experiment: Induction of cell cycle arrest in human MCF7 cells assessed as accumulation at G0/G1 phase at 10 uM incubated for 24 hrs by flow cytometry (Rvb= 46.53 +/- 0.44%); type: functional
[19] = Toxicity in mouse xenografted with human MCF7 cells assessed as morphological changes in kidney at 30 mg/kg,po for 30 days daily by Hematoxylin and eosin staining based microscopy; type: organism-based; details: in vivo, 720 h, time 30 day
Ishikawa = experiment: Antiproliferative activity against human Ishikawa cells assessed as cell growth inhibition at 20 uM incubated for 3 days by MTT assay; type: functional; details: for inhibition at 20 µM: 72 h, time 3 day
[20] = Toxicity in Sprague-Dawley rat uterus assessed as increase in uterine wet weight at 0.1 mg/kg, po for 2 days consecutively; type: organism-based; details: in vivo, 48 h, time 2 day
[21] = Plasma concentration in ICR mouse at 100 mg/kg, po and measured after 0.25 hrs by LC-MS analysis; type: ADME, organism-based
[22] = Plasma concentration in ICR mouse at 100 mg/kg, po and measured after 1 hrs by LC-MS analysis; type: ADME, organism-based
[23] = Plasma concentration in ICR mouse at 100 mg/kg, po and measured after 0.5 hrs by LC-MS analysis; type: ADME, organism-based
[24] = MRT(t) in ICR mouse at 30 mg/kg, po and measured upto 24 hrs by LC-MS analysis; type: ADME, organism-based; details: in vivo
[25] = C0 in ICR mouse at 3 mg/kg, iv and measured upto 24 hrs by LC-MS analysis; type: ADME, organism-based; details: in vivo
[26] = Oral bioavailability in ICR mouse at 30 mg/kg and measured upto 24 hrs by LC-MS analysis; type: ADME, organism-based; details: in vivo
[27] = AUCt in ICR mouse at 3 mg/kg, iv and measured upto 24 hrs by LC-MS analysis; type: ADME, organism-based; parameters: dose 3 mg/kg, time < 24 hrs, route iv; details: in vivo
[28] = MRT (0 to infinity) in ICR mouse at 30 mg/kg, po and measured upto 24 hrs by LC-MS analysis; type: ADME, organism-based; details: in vivo
[29] = Half life in ICR mouse at 30 mg/kg, po and measured upto 24 hrs by LC-MS analysis; type: ADME, organism-based; details: in vivo
[30] = Clearance in ICR mouse at 3 mg/kg, iv and measured upto 24 hrs by LC-MS analysis; type: ADME, organism-based; details: in vivo
[31] = Tmax in ICR mouse at 30 mg/kg, po and measured upto 24 hrs by LC-MS analysis; type: ADME, organism-based; details: in vivo
[32] = AUC (0 to infinity) in ICR mouse at 3 mg/kg, iv and measured upto 24 hrs by LC-MS analysis; type: ADME, organism-based; parameters: time < 24 hrs, dose 3 mg/kg, route iv; details: in vivo
[33] = Apparent volume of distribution in ICR mouse at 3 mg/kg, iv and measured upto 24 hrs by LC-MS analysis; type: ADME, organism-based; details: in vivo, read-out: Vz
[34] = Cmax in ICR mouse at 3 mg/kg, iv and measured upto 24 hrs by LC-MS analysis; type: ADME, organism-based; parameters: dose 3 mg/kg, time < 24 hrs, route iv; details: in vivo
[35] = MRT(t) in ICR mouse at 3 mg/kg, iv and measured upto 24 hrs by LC-MS analysis; type: ADME, organism-based; details: in vivo
[36] = MRT (0 to infinity) in ICR mouse at 3 mg/kg, iv and measured upto 24 hrs by LC-MS analysis; type: ADME, organism-based; details: in vivo
[37] = AUC (0 to infinity) in ICR mouse at 30 mg/kg, po and measured upto 24 hrs by LC-MS analysis; type: ADME, organism-based; parameters: time < 24 hrs, dose 30 mg/kg, route po; details: in vivo
[38] = Half life in ICR mouse at 3 mg/kg, iv and measured upto 24 hrs by LC-MS analysis; type: ADME, organism-based; details: in vivo
[39] = Tmax in ICR mouse at 3 mg/kg, iv and measured upto 24 hrs by LC-MS analysis; type: ADME, organism-based; details: in vivo
[40] = Cmax in ICR mouse at 30 mg/kg, po and measured upto 24 hrs by LC-MS analysis; type: ADME, organism-based; parameters: time < 24 hrs, dose 30 mg/kg, route po; details: in vivo
[41] = AUCt in ICR mouse at 30 mg/kg, po and measured upto 24 hrs by LC-MS analysis; type: ADME, organism-based; parameters: time < 24 hrs, dose 30 mg/kg, route po; details: in vivo
MCF7 [42] = experiment: Antiproliferative activity against human MCF7 cells assessed as reduction in cell viability; type: functional, cell-based

IC50 (MCF7 [13]): 200 nM
Structure (SMILES): Cc1ccc(C(=O)c2sc3cc(F)ccc3c2Oc2ccc(/C=C/C(=O)O)cc2)c(C)c1
Activity (MCF7 [1]): Dose-Dependent Effect | Activity (MCF7 [2]): Active | Activity [3]: Non-Toxic | Activity (Mus musculus [4]): Active | Activity (MCF7 [5]): Active | Activity [6]: Non-Toxic | Activity (MCF7 [7]): Active | Activity (MCF7 [8]): Active | Activity (MCF7 [9]): Active | Activity [10]: Non-Toxic | Activity [11]: Non-Toxic | Activity (MCF7 [12]): Active | Activity (MCF7 [14]): Active | Activity (Mus musculus [15]): Active | Activity (MCF7 [16]): Active | Activity [17]: Non-Toxic | Activity (MCF7 [18]): 57.36% | Activity [19]: Non-Toxic | inhibition at 20 µM (Ishikawa): 13%

Structure (SMILES): C[C@]12CC[C@@H]3c4ccc(O)cc4CC[C@H]3[C@@H]1CC[C@@H]2O [ESTRADIOL]
Activity [20]: Toxic

IC50 (MCF7 [13]): 1880 nM
Structure (SMILES): O=C(O)/C=C/c1ccc(Oc2c(C(=O)c3ccc4occc4c3)sc3cc(F)ccc23)cc1
Activity (MCF7 [16]): Active | inhibition at 20 µM (Ishikawa): 12%

concentration at 0.25 h [21]: 9860 ng/mL | IC50 (MCF7 [13]): 2120 nM | concentration at 1 h [22]: 15600 ng/mL | concentration at 0.5 h [23]: 16000 ng/mL
Structure (SMILES): O=C(O)/C=C/c1ccc(Oc2c(C(=O)c3ccccc3)sc3cc(F)ccc23)cc1
Activity (MCF7 [16]): Active | inhibition at 20 µM (Ishikawa): 8%

IC50 (MCF7 [13]): 370 nM
Structure (SMILES): CCc1ccccc1C(=O)c1sc2cc(F)ccc2c1Oc1ccc(/C=C/C(=O)O)cc1
Activity (MCF7 [16]): Active | inhibition at 20 µM (Ishikawa): 12%

concentration at 0.5 h [23]: 4500 ng/mL
Structure (SMILES): Cc1cc(F)cc(C)c1C(=O)c1sc2cc(O)ccc2c1Oc1ccc(/C=C/C(=O)O)cc1 [RINTODESTRANT]

IC50 (MCF7 [13]): > 20000 nM
Structure (SMILES): O=C(O)/C=C/c1ccc(Oc2c(C(=O)c3ccc4ccncc4c3)sc3cc(F)ccc23)cc1
Activity (MCF7 [16]): Active | inhibition at 20 µM (Ishikawa): 36%

MRT last at 24 h [24]: 4.39 h | C0 at 24 h [25]: 4840 ng/mL | bioavailability [26]: 62.9% | AUC(0-t) at 24 h [27]: 4610 ng·h/mL | MRT inf [28]: 6.06 h | half-life [29]: 3.13 h | clearance [30]: 11 mL/min/kg | Tmax [31]: 0.333 h | AUC(0-inf) [32]: 4640 ng·h/mL | Vd [33]: 1.13 L/kg | Cmax [34]: 4500 ng/mL | MRT last at 24 h [35]: 0.978 h | IC50 (MCF7 [13]): 55 nM | MRT inf [36]: 1.04 h | AUC(0-inf) [37]: 29200 ng·h/mL | half-life [38]: 1.23 h | Tmax [39]: 1.8 min | Cmax [40]: 5530 ng/mL | AUC(0-t) at 24 h [41]: 26600 ng·h/mL
Structure (SMILES): Cc1cc(F)cc(C)c1C(=O)c1sc2cc(F)ccc2c1Oc1ccc(/C=C/C(=O)O)cc1
Activity (MCF7 [1]): Dose-Dependent Effect | Activity (MCF7 [2]): Active | Activity [3]: Non-Toxic | Activity (Mus musculus [4]): Active | Activity (MCF7 [5]): Active | Activity [6]: Non-Toxic | Activity (MCF7 [7]): Active | Activity (MCF7 [8]): Active | Activity (MCF7 [9]): Active | Activity [10]: Non-Toxic | Activity [11]: Non-Toxic | Activity (MCF7 [12]): Active | Activity (MCF7 [14]): Active | Activity (Mus musculus [15]): Active | Activity (MCF7 [16]): Active | Activity [17]: Non-Toxic | Activity (MCF7 [18]): 56.1% | Activity [19]: Non-Toxic | inhibition at 20 µM (Ishikawa): 12%

IC50 (MCF7 [42]): 4200 nM
Structure (SMILES): CCNCCc1ccc(CN(CC)c2cc(OC)ccc2[C@@H]2CCc3cc(O)ccc3C2)cc1 [ELACESTRANT]

IC50 (MCF7 [13]): 9910 nM
Structure (SMILES): O=C(O)/C=C/c1ccc(-c2ccc(Oc3c(C(=O)c4ccccc4)sc4cc(F)ccc34)cc2)cc1
Activity (MCF7 [16]): Active | inhibition at 20 µM (Ishikawa): 8%

IC50 (MCF7 [13]): 1440 nM
Structure (SMILES): O=C(O)/C=C/c1ccc(Oc2c(C(=O)c3ccc(OC(F)(F)F)cc3)sc3cc(F)ccc23)cc1
Activity (MCF7 [16]): Active | inhibition at 20 µM (Ishikawa): 18%

IC50 (MCF7 [13]): 4280 nM
Structure (SMILES): O=C(O)/C=C/c1ccc(Oc2c(C(=O)c3cccc4sccc34)sc3cc(F)ccc23)cc1
Activity (MCF7 [16]): Active | inhibition at 20 µM (Ishikawa): 12%

IC50 (MCF7 [13]): 1530 nM
Structure (SMILES): O=C(O)/C=C/c1ccc(Oc2c(C(=O)c3ccccc3)sc3cc(F)ccc23)cc1F
Activity (MCF7 [16]): Active | inhibition (Ishikawa; time 3.0 day): inactive
